Paper PMC7334220, “Diamond Blackfan anemia is mediated by hyperactive Nemo-like kinase” (Nature Communications, 2020)

Legend:
DBA patient HSPCs = experiment: Erythroid differentiation (CD235+) of CD34+ HSPCs from DBA patient bone marrow; format: cell-based, human; details: 5 µM SD208; three DBA patients
Method: Cells were counted and assessed for cell surface expression of CD235. b Lin-Kit^+ hematopoietic progenitors were obtained from three mouse embryos expressing tetracycline-inducible shRNA against RPS19 at day E14.5 or three untreated mice, and thee mature RPL11^+/+ or three mature RPL11^+/lox mice treated with tamoxifen for eight weeks. […] Values were expressed as a percentage relative to untreated controls. c, d Intracellular phosphorylation of NLK at Thr298 was determined by capillary electrophoresis using the Peggy Sue™ Automated Western blotting platform. After lysis, 4 µg of protein from the CD235^+ population was probed against pThr298-NLK and normalized to GAPDH. […] After counting the total cell population, the ratio of CD235^+ erythroblasts was determined by flow cytometry and number of CD235^+ erythroblasts calculated. This was expressed as a percentage of the average number of erythroid cells present in untreated healthy controls. f NLK phosphorylation was assessed by capillary electrophoresis as above. Bars represent means ± SD with individual data points overlaid. […] Statistics: two-tailed Student’s t test, significant *p < 0.05. Also see Supplementary Fig. 8. Source data are provided as a Source Data file. […]

[1] = system: ribosome-competent cord blood CD34+ HSPCs (shLuc); experiment: In vitro differentiation of cord blood CD34+ HSPCs transduced with control shRNA (luciferase); format: cell-based, human
Method: Lin-Kit^+ fetal liver cells were obtained from mouse embryos expressing tet-on shRNA against RPS19, at day E14.5-15.5. Cells were plated at 2000 cell per well in 96-well plates in the presence or absence of doxycycline. Relative amounts of live cells were quantified by luciferase-based Cell titer-Glo® assay. b TGFβR1 inhibitors were assessed for their ability to increase cell expansion in RPS19-insuffiency. As a control, vehicle alone (no doxycycline) is represented at the far left while all other samples were treated with doxycycline to induce RPS19-insufficiency. c Kit^+ erythroid progenitors were grown in the absence of doxycycline and in the presence of 10 µM of indicated compound. In addition, cells were treated with 5 ng/ml of TGFβ1 for 5 days before being subjected to Cell titer-Glo® assay. d Differentiating cord blood CD34^+ progenitors were transduced with shRNA against luciferase or RPS19 and treated with inhibitors at working concentrations for TGFβ inhibition every three days. […] Cells were counted and CD235^+ erythroid (i and iii) and CD11b^+ myeloid cell (ii and iv) percentages were determined by flow cytometry. The number of erythroid or myeloid cells is expressed as a percentage of the number of that lineage with no cytokine or drug treatment. […]
Fig. 8 NLK inhibition increases expansion of erythroid progenitors from human and murine models of DBA. a Human cord blood CD34^+ progenitors were transduced with lentivirus co-expressing GFP with shRNA against luciferase (shLuc), RPS19 (shRPS19), or RPL11 (shRPL11). […] Cells were counted and assessed for cell surface expression of CD235. b Lin-Kit^+ hematopoietic progenitors were obtained from three mouse embryos expressing tetracycline-inducible shRNA against RPS19 at day E14.5 or three untreated mice, and thee mature RPL11^+/+ or three mature RPL11^+/lox mice treated with tamoxifen for eight weeks. […] Values were expressed as a percentage relative to untreated controls. c, d Intracellular phosphorylation of NLK at Thr298 was determined by capillary electrophoresis using the Peggy Sue™ Automated Western blotting platform. […]

## Fc1ccc(Cl)cc1-c1nc(Nc2ccncc2)c2nccnc2n1 [SD208]
DBA patient HSPCs
  mean increase of CD235+ erythroblast differentiation with SD208: 2.11 fold
[1]; Homo sapiens, 360 h, read-out: erythroid expansion of HSPCs transduced with control shRNA, % of control
  activity at 5 µM: ~105%
[1]; ribosome-competent cells, 5 ng/ml TGFβ1, 5 µM compound, 15 days, Fig. 1e
  restoration of erythroid and myeloid expansion of TGFβ-treated cells: restored
